Measured values taken from patent US20080025917A1, “Methods for modulating formation and progression of cellulite” (priority 2006, published 2008).

Experiments:
[1] = tested on: NMuMg murine epithelial cells; test: TGFβ-induced myofibroblast formation, Western blot for smooth muscle actin; assay type: cell-based; details: 5 ng/ml TGFβ1, 72 hours, increasing doses
Procedure: NMuMg murine epithelial cells were induced to undergo transition to myofibroblasts by stimulation with 5 ng/ml TGFβ1. After 72 hours, myofibroblast differentiation was assessed by Western blot for Smooth muscle actin (SMA), a myofibroblast contractile protein. […] Thus, HF inhibited myofibroblasts formation in response to TGFβ.

[2] = in vitro; cited from earlier work
[3] = tested on: human primary dermal fibroblasts; test: Fibroblast-driven collagen disc contraction; assay type: cell-based; details: 100 nM, 72 hours
Procedure: Human primary dermal fibroblasts were seeded in a matrix of Type I collagen in the presence or absence of 5 ng/ml TGFβ or 100 nM HF. Collagen discs were released from attachment to the culture dish and allowed to undergo fibroblast-driven contraction for 72 hours. The area of the discs at time zero was 200 units.

[4] = cited from earlier work
TIF1β = molecular target: T1, TIF1β (Mus musculus, UniProt Q62318); test: HF-affinity resin binding / free-compound competition for TIF1β
T1 construct: endogenous in cells; host or cells: SV-MES cells (lysate)
Source text: The molecular mechanisms underlying the regulation of ECM by HF currently are not known. […] These proteins, TIF1β and Ruvbl2, are both transcriptional regulatory proteins. TIF1β is known to interact with transcription factors that regulate Type I collagen expression, providing the first molecular connection between HF and the regulation of an ECM gene. A brief description and data detailing the isolation and identification of HF binding proteins are provided below. […] This band was identified by tandem mass spectrometry as TIF1β. These HF binding proteins were isolated and identified by tandem mass spectrometry. Using this approach, the transcriptional co-repressor TIF1β (FIG. 4) was initially identified as an HF binding protein. A cDNA encoding TIF1β was also identified and used to confirm that TIF1β binds specifically to HF (FIG. 5). Cloned, tagged TIF1β was transfected into SV-MES cells and precipitated with HF-resin.

RuvBl2 = molecular target: T2, RuvBl2 (Mus musculus, UniProt Q9WTM5); test: HF affinity purification / tandem mass spectrometry, RuvBl2; assay type: binding
T2 construct: endogenous in cells; host or cells: SV-MES cell lysate (inferred from the same approach described)
Source text: TIF1β is a member of a family of transcriptional co-repressors (Chang, et al., Mol Cell Biol, vol. 18: 5880-87 (1998); Hsu, et al. Embo J., vol. 20: 2273-85 (2001); Le Douarin, et al. J Steroid Biochem Mol Biol 65, 43-50 (1998)). TIF1β interacts with a variety of transcription factors, including nuclear receptors, to mediate regulation of chromatin modification (Chang, et al., Mol Cell Biol, vol. 18: 5880-87 (1998); Hsu, et al. Embo J., vol. 20: 2273-85 (2001); Nomura, et al. J Biol Chem 279, 16715-26 (2004)). TIF1β interacts with a number of transcription factors known to regulate the synthesis of Type I collagen, providing a direct link between HF, TIF1β and the transcription of extracellular matrix genes. […] Ruvbl2, also known as Reptin, ECP51, Tip48, and Tip49b, is, like TIF1β, known to function in transcriptional regulation and chromatin re-modeling (Kanemaki, et al. J Biol Chem 274, 22437-44 (1999)). The identification of halofuginone's intracellular effectors, and the binding sites for halofuginone in those effectors, provides additional approaches to targeting the deposition of sub-dermal ECM. New classes of small molecules can be designed to target intracellular effectors such as TIF1β and RuvBl2, broadening the range of potential therapeutic agents for the treatment of cellulite.

[5] = tested on: human primary dermal fibroblasts; test: Attachment and spreading of primary dermal fibroblasts on a Type I collagen matrix; assay type: cell-based
Procedure: Assay of HF effects on contractile behavior of dermal fibroblasts. Previous studies have established that HF can modulate fibrosis in vivo, and regulate ECM production by cells in vitro. The studies described herein provide a simple assay to test the effects of HF and its putative mediators on the behavior of cells likely to provide the basis for the structural features of cellulite—dermal fibroblasts and myofibroblasts. When human primary dermal fibroblasts are cultured in a matrix of Type I collagen, mimicking the interstitial matrix of the dermis and hypodermis, they attach to the substratum and spread, exerting contractile force on the surrounding interstitial matrix (FIG. 2A).

[6] = tested on: Primary human dermal fibroblasts; assay type: cell-based; details: 100 nM, 5 ng/ml TGFβ1
Procedure: Primary human dermal fibroblasts were seeded in a matrix of Type I collagen with 5 ng/ml TGFβ1 in the presence or absence of 100 nM HF. FIG. 7 depicts the effect of the presence and absence of HF on the behavior of TGFβ-treated dermal fibroblasts.

T1 sequence (Q62318 whole entry): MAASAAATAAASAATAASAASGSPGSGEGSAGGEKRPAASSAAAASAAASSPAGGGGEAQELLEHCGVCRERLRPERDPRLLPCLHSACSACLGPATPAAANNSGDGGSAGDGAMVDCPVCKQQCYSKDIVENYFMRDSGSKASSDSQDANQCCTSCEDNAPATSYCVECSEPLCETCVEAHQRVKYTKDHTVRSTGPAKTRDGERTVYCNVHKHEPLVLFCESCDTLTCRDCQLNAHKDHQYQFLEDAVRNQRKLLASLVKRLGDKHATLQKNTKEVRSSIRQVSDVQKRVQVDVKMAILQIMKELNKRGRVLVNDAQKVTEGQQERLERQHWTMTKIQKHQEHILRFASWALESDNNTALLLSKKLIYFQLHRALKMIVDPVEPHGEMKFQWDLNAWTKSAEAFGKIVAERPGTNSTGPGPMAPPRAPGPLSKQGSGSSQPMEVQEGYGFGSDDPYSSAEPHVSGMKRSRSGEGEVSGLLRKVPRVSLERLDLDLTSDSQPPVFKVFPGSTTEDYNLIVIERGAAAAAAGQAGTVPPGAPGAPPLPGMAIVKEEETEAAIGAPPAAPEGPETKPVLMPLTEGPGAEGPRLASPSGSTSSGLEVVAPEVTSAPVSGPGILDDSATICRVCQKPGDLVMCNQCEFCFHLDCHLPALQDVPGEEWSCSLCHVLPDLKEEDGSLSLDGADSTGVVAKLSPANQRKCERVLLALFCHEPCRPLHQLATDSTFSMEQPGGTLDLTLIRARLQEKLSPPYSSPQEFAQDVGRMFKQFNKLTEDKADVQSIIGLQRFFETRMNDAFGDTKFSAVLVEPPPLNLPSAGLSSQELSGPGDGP
T2 sequence (Q9WTM5 2-463 limits assumed): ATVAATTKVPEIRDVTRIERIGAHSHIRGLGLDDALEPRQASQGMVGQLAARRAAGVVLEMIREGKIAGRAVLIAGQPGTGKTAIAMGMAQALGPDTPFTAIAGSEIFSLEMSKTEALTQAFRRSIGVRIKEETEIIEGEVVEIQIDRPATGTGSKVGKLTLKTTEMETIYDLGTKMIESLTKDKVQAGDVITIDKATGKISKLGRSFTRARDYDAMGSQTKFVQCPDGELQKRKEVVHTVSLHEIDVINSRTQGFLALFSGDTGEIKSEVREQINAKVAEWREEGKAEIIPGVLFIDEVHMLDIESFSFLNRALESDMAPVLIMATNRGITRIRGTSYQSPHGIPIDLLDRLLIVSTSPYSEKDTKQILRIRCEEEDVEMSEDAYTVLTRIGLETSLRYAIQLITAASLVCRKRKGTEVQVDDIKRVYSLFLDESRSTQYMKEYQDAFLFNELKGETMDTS

Row | Structure (SMILES) | smooth muscle actin (SMA) induction [1] | concentration at which it acts as an inhibitor of fibrosis [2] [nM] | contractile activity of myofibroblasts in a collagen matrix (disc area) [3] | excess dermal ECM deposition ([4]; animal models of wound healing and fibrotic disease, intra-peritoneally, in food or applied locally) | toxicity in vivo ([4]; in vivo) | competition by free compound for binding of TIF1β band to HF affinity resin (TIF1β; SV-MES cell lysates, excess free compound) | blocking of tagged TIF1β interaction with immobilized HF by pre-incubation (TIF1β; cloned, tagged TIF1β transfected into SV-MES cells, precipitated with HF-resin) | binding of RuvBl2 to HF (RuvBl2) | ability of fibroblasts to attach and spread on collagen matrix ([5]; 200 nM, 24 hrs) | ability of fibroblasts to attach and spread on collagen matrix ([5]; as little as 30 nM) | fibroblast extensions and attachments to the matrix [6]
1 | O=C(CC1NCCCC1O)Cn1cnc2cc(Br)c(Cl)cc2c1=O (stereo not drawn) [HF, 7-bromo-6-chloro-3-[3-(3-hydroxy-2-piperidinyl)-2-oxopropyl]-4(3H)-quinazolinone] | eliminated SMA induction | 20 to 200 | inhibited the contractile activity | reduces excess dermal ECM deposition | low-toxicity | specifically competed | blocked TIF1β interaction with immobilized HF | second HF binding protein | completely fail to attach and spread | Identical results | no extensions or attachments to the matrix or to one another
2 | CC(C)(C)OC(=O)N1CCC[C@H](O)[C@H]1CC(=O)Cn1cnc2cc(Br)c(Cl)cc2c1=O [MAZ1310] | – | – | – | – | – | – | – | – | inactive | – | –
